From ChEMBL document CHEMBL3397005, “Synthesis and antiproliferative activity of novel polynuclear heterocyclic compounds derived from 2,3-diaminophenazine” (Eur J Med Chem, 2015) come the findings set out here.

≈ marks a conversion by molar mass, not a printed value. Calls of active or inactive are those of the source. The rule behind the calls is not given here.

Test [1] concerns HCT-116. The test can be described thus: Inhibition of tyrosine kinase in human HCT116 cells at IC50 after 24 hrs by ELISA relative to control. In kind it is cell-based. (In general: An ELISA detects its analyte on a solid surface through an enzyme-linked reagent.)
In test [2] the test system is A549. Put plainly: Inhibition of tyrosine kinase in human A549 cells at IC50 after 24 hrs by ELISA relative to control. In kind it is cell-based.
Test [3] relates to A549. Put plainly: Antiproliferative activity against human A549 cells. The class given is functional, cell-based.
Test [4] can be described thus: (§1) Antiproliferative activity against human HCT116 cells. The class given is functional, cell-based. Particulars: HCT-116.
Test [5] deals with HCT-116. The test is described as §1. The class given is functional, cell-based.

Usually inhibition stands for how much of the control response was suppressed. A lower inhibition goes with little suppression. By IC50 is commonly meant the concentration needed to halve the response being measured. High values mean a need for much substance, low ones inhibition by little substance. With `CSc1nc2cc3nc4ccccc4nc3cc2[nH]1`, the inhibition came out at 84% in the test with HCT-116 [1] and 85% with A549 [2]. Further, the IC50 in the test on A549 [3] stood at 8.4 µg/mL (≈ 31.5 µM); in test [4] it was 5.2 µg/mL (≈ 19.5 µM).

Take `CCCc1nc2cc3nc4ccccc4nc3cc2[nH]1`: the inhibition in the test on HCT-116 [1] turned out to be 64%; in the test with A549 [2], 70%. The IC50 in the test on A549 [3] amounted to 8.4 µg/mL (≈ 32 µM); in test [4], 6.5 µg/mL (≈ 24.8 µM).

`CCOC(=O)c1nn(-c2ccc(Cl)cc2)c2nc3cc4nc5ccccc5nc4cc3n12`: the figures for the inhibition in the test on HCT-116 [1] and with A549 [2] were 37% and 50%, respectively. In addition, the concentration for half-maximal inhibition (IC50) stood at 17.6 µg/mL (≈ 39.7 µM) in the test on A549 [3] and 8.75 µg/mL (≈ 19.8 µM) in test [4].

For the molecule `CC1=NN(c2ccccc2)C(=O)C1/N=N/c1cc2nc3ccccc3nc2cc1N` (stereo unspecified), the inhibition is 2% with HCT-116 [1] and 4% with A549 [2]. The IC50 was determined as 22 µg/mL (≈ 55.6 µM) in the test with A549 [3] and 11.9 µg/mL (≈ 30.1 µM) in test [4].

In the case of `O=c1oc(=O)c2[nH]c3cc4nc5ccccc5nc4cc3[nH]c1=2`, the inhibition in the test with HCT-116 [1] was found to be 0.4%; in the test with A549 [2], 2%. In addition, the IC50 with A549 [3] worked out at 27.6 µg/mL (≈ 90.7 µM); in test [4], 14.6 µg/mL (≈ 48 µM).

For the molecule `c1ccc(-c2nc3cc4nc5ccccc5nc4cc3[nH]2)cc1`, the outcome in the test on A549 [3] and in the test on HCT-116 [5] was inactive.

Regarding `O=C(Nc1cc2nc3ccccc3nc2cc1NC(=O)c1ccccc1)c1ccccc1`, the inhibition with HCT-116 [1] turned out to be 0.5%; with A549 [2], 1%. In addition, the IC50 in the test with A549 [3] was found to be 23.6 µg/mL (≈ 56.4 µM); in test [4] it was 17.5 µg/mL (≈ 41.8 µM).

As to `Clc1cccc(-c2nc3cc4nc5ccccc5nc4cc3[nH]2)c1`, the inhibition was determined as 17% in the test with HCT-116 [1] and 15% with A549 [2]. The half-maximal inhibitory concentration (IC50) was 13.8 µg/mL (≈ 41.7 µM) in the test with A549 [3] and 7.9 µg/mL (≈ 23.9 µM) in test [4].

On to `Nc1cc2nc3ccccc3nc2cc1/N=N/C1C(=O)ON=C1c1ccccc1` (stereo unspecified), for which the inhibition was determined as 68% with HCT-116 [1] and 72% in the test with A549 [2]. Besides, the IC50 was 9.8 µg/mL (≈ 25.6 µM) with A549 [3] and 6.8 µg/mL (≈ 17.8 µM) in test [4].

Take `C(=C\c1nc2cc3nc4ccccc4nc3cc2[nH]1)/c1ccccc1`: the outcome in the test on A549 [3] and in the test with HCT-116 [5] was inactive.

As to `c1ccc2nc3cc4[nH]cnc4cc3nc2c1`, the inhibition with HCT-116 [1] was found to be 3%; in the test on A549 [2], 5%. For the same molecule, the IC50 in the test with A549 [3] was 21.7 µg/mL (≈ 98.5 µM); in test [4] it was 11.4 µg/mL (≈ 51.8 µM).

With `Nc1cc2nc3ccccc3nc2cc1N`, the inhibition stood at 72% in the test on HCT-116 [1] and 80% with A549 [2]. Besides, the figures for the IC50 (in the test with A549 [3]; in test [4]) were 8.8 µg/mL (≈ 41.9 µM) and 6 µg/mL (≈ 28.5 µM), respectively.

On to `O=c1[nH]c2cc3nc4ccccc4nc3cc2[nH]c1=O`, for which the result in the test with A549 [3] and in the test on HCT-116 [5] was inactive.

As to `O=c1[nH]c2cc3nc4ccccc4nc3cc2[nH]/c1=N/Nc1ccccc1`, the outcome in the test on A549 [3] and in the test with HCT-116 [5] was inactive.

For `CC1CC(=O)Nc2cc3nc4ccccc4nc3cc2N1` (stereo unspecified), the outcome in the test on A549 [3] and in the test on HCT-116 [5] was inactive.

As for `CCOC(=O)c1nn(-c2ccccc2)c2nc3cc4nc5ccccc5nc4cc3n12`, the values for the inhibition in the test with HCT-116 [1] and in the test on A549 [2] were 4% and 11%, respectively. Also, the IC50 with A549 [3] stood at 21 µg/mL (≈ 51.4 µM); in test [4] it was 11.2 µg/mL (≈ 27.4 µM).

Consider `CCOC(=O)/C(=N/Nc1ccccc1)Nc1cc2nc3ccccc3nc2cc1N`, for which the outcome in the test on A549 [3] and in the test on HCT-116 [5] was inactive.

For the molecule `O=C1CC(=O)Nc2cc3nc4ccccc4nc3cc2N1`, the outcome with A549 [3] and in the test on HCT-116 [5] was inactive.

Turning to `CC1(C)CC(=O)C(/N=N/c2cc3nc4ccccc4nc3cc2N)C(=O)C1`, the inhibition is 0.6% with HCT-116 [1] and 2% in the test with A549 [2]. The values for the 50% inhibitory concentration (IC50) (with A549 [3]; in test [4]) were 22.3 µg/mL (≈ 61.7 µM) and 13.9 µg/mL (≈ 38.5 µM), respectively.

Take `S=c1[nH]c2cc3nc4ccccc4nc3cc2[nH]1`: the inhibition with HCT-116 [1] is 85%; in the test on A549 [2], 86%. The IC50 was 7.7 µg/mL (≈ 30.5 µM) in the test on A549 [3] and 4.4 µg/mL (≈ 17.4 µM) in test [4].

Regarding `Clc1ccc(-c2nc3cc4nc5ccccc5nc4cc3[nH]2)c(Cl)c1`, the inhibition with HCT-116 [1] was determined as 12%; in the test on A549 [2], 16%. Besides, the IC50 amounted to 11.5 µg/mL (≈ 31.5 µM) in the test on A549 [3] and 6.8 µg/mL (≈ 18.6 µM) in test [4].

In the case of `CCOC(=O)c1nn(-c2ccc(C)cc2)c2nc3cc4nc5ccccc5nc4cc3n12`, the values for the inhibition in the test on HCT-116 [1] and with A549 [2] were 18% and 14%, respectively. Also, the results for the IC50 (with A549 [3]; in test [4]) were 19 µg/mL (≈ 45 µM) and 9.6 µg/mL (≈ 22.7 µM), respectively.

For `c1ccc2nc3c(nc2c1)Nc1cc2nc4ccccc4nc2cc1N3`, the result with A549 [3] and with HCT-116 [5] was inactive.
